Laboratory results as given in patent US6511978B1, “Pyrrole derivatives useful for farnesyl transferase inhibitors and their preparations” (LG Life Sciences, Ltd., priority 1999, dated 2003).

What was measured:
Ras farnesyl transferase [1] = target: T1, Ras farnesyl transferase (Homo sapiens, UniProt P49354+P49356); assay: Ras farnesyl transferase enzyme inhibition, H-Ras substrate; format: biochemical; conditions: H-Ras substrate protein; recombinant farnesyl transferase; 30 minutes at 37° C.
T1 construct: made in house

Ras farnesyl transferase [2] = target: T1, Ras farnesyl transferase; assay: Ras farnesyl transferase enzyme inhibition, K-Ras substrate (H-Ras fused with polybasic lysine domain of K-Ras); format: biochemical; conditions: K-Ras substrate (fused protein of H-Ras with polybasic lysine domain of K-Ras); recombinant farnesyl transferase
Ras farnesyl transferase [3] = target: T2, Ras farnesyl transferase (Rattus norvegicus, UniProt Q02293+Q04631); assay: In vivo (intracellular) Ras farnesylation inhibition in Rat2 cell line expressing C-Harvey-Ras; format: cell-based; conditions: Rat2 cells expressing C-Harvey-Ras; concentration inhibiting 50% of farnesyl binding; read-out: H-Ras CIC50
T2 construct: endogenous in cells; host or cells: Rat2 fibroblasts transformed with C-Harvey-Ras or with the H-Ras/K-Ras polybasic-domain fusion
How it was run: (§1)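 Transformed Rat2 fibroblasts treated with compound (1% DMSO) for 4 h, then labelled with [^35S]methionine 150 μCi/ml for 20 h. Ras immunoprecipitated with Y13-259 and resolved on 13.5% SDS-PAGE autoradiography; CIC50 is concentration inhibiting 50% of farnesylated Ras band.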

Ras farnesyl transferase [4] = target: T2, Ras farnesyl transferase; assay: In vivo (intracellular) Ras farnesylation inhibition in Rat2 cell line transformed with H-Ras fused with polybasic lysine domain of K-Ras; format: cell-based; conditions: Rat2 cells transformed with H-Ras/K-Ras polybasic domain fused protein; concentration inhibiting 50% of farnesyl binding; read-out: K-Ras CIC50
How it was run: as §1

**Q.** Which IC50 (Ras farnesyl transferase [1]) does the source give for `O=[N+]([O-])c1cn(Cc2cncn2Cc2ccc3ccccc3c2)cc1-c1cccc2ccccc12` [Example 49, 1-[1-(naphthalen-2-ylmethyl)-1H-imidazol-5-ylmethyl]-4-(naphthalen-1-yl)-3-nitro-1H-pyrrole] here?
**A.** < 0.03 µM

**Q.** And the IC50 (Ras farnesyl transferase [2])?
**A.** > 0.03 µM

**Q.** What about the IC50 (Ras farnesyl transferase [3]) of the same compound?
**A.** > 0.05 µM

**Q.** And the IC50 (Ras farnesyl transferase [4])?
**A.** > 10 µM

**Q.** With `Nc1cn(Cc2cncn2Cc2ccc(Cl)cc2)cc1-c1cccc2ccccc12` [Example 50, 3-amino-1-[1-(4-chlorobenzyl)-1H-imidazol-5-ylmethyl]-4-(naphthalen-1-yl)-1H-pyrrole] as the compound, how does the IC50 (Ras farnesyl transferase [1]) read?
**A.** > 0.03 µM

**Q.** And the IC50 (Ras farnesyl transferase [2])?
**A.** > 0.03 µM

**Q.** What about the IC50 (Ras farnesyl transferase [3]) of the same compound?
**A.** > 0.05 µM

**Q.** And the IC50 (Ras farnesyl transferase [4])?
**A.** > 10 µM

**Q.** Which IC50 (Ras farnesyl transferase [1]) does the source give for `Cc1ncn(Cc2ccc3c(c2)OCO3)c1Cn1cc(C(=O)N2CCN(C)CC2)c(-c2cc(Br)cc3ccccc23)c1` [Example 51, 4-(3-bromonaphthalen-1-yl)-1-[4-methyl-1-(3,4-methylenedioxybenzyl)-1H-imidazol-5-ylmethyl]-3-(4-methylpiperazin-1-yl)carbonyl-1H-pyrrole] here?
**A.** < 0.01 µM

**Q.** And the IC50 (Ras farnesyl transferase [2])?
**A.** < 0.03 µM

**Q.** And the IC50 (Ras farnesyl transferase [3])?
**A.** < 0.01 µM

**Q.** And the IC50 (Ras farnesyl transferase [4])?
**A.** > 10 µM

**Q.** For `Cc1ncn(Cc2ccc3c(c2)OCO3)c1Cn1cc(C(=O)N2CCN(C)CC2)c(-c2cc(Cl)cc3ccccc23)c1` [Example 52, 4-(3-chloronaphthalen-1-yl)-1-[4-methyl-1-(3,4-methylenedioxybenzyl)-1H-imidazol-5-ylmethyl]-3-(4-methylpiperazin-1-yl)carbonyl-1H-pyrrole], which IC50 (Ras farnesyl transferase [1]) is on record?
**A.** < 0.01 µM

**Q.** What about the IC50 (Ras farnesyl transferase [2]) of the same compound?
**A.** < 0.03 µM

**Q.** And the IC50 (Ras farnesyl transferase [3])?
**A.** < 0.01 µM

**Q.** And the IC50 (Ras farnesyl transferase [4])?
**A.** > 10 µM

**Q.** Which results are given for `Cc1ncn(Cc2ccc3ccccc3c2)c1Cn1cc(C(=O)N2CCN(C)CC2)c(-c2cc(Br)cc3ccccc23)c1` [Example 53, 4-(3-bromonaphthalen-1-yl)-1-[4-methyl-1-(naphthalen-2-yl)methyl-1H-imidazol-5-ylmethyl]-3-(4-methylpiperazin-1-yl)carbonyl-1H-pyrrole]?
**A.** IC50 (Ras farnesyl transferase [1]): < 0.01 µM; IC50 (Ras farnesyl transferase [2]): < 0.03 µM; IC50 (Ras farnesyl transferase [3]): < 0.01 µM; IC50 (Ras farnesyl transferase [4]): > 10 µM

**Q.** `Cc1ncn(Cc2ccc3ccccc3c2)c1Cn1cc(C(=O)N2CCN(C)CC2)c(-c2cc(Cl)cc3ccccc23)c1` [Example 54, 4-(3-chloronaphthalen-1-yl)-1-[4-methyl-1-(naphthalen-2-yl)methyl-1H-imidazol-5-ylmethyl]-3-(4-methylpiperazin-1-yl)carbonyl-1H-pyrrole] was tested. Which IC50 (Ras farnesyl transferase [1]) did it give?
**A.** < 0.01 µM

**Q.** And the IC50 (Ras farnesyl transferase [2])?
**A.** < 0.03 µM

**Q.** What about the IC50 (Ras farnesyl transferase [3]) of the same compound?
**A.** < 0.01 µM

**Q.** And the IC50 (Ras farnesyl transferase [4])?
**A.** > 10 µM

**Q.** How did the IC50 (Ras farnesyl transferase [1]) turn out when `Cc1ncn(Cc2ccc3ccccc3c2)c1Cn1cc(C(=O)N2CCN(C)CC2)c(-c2cccc3ccccc23)c1` [Example 55, 1-[4-methyl-1-(naphthalen-2-yl)methyl-1H-imidazol-5-ylmethyl]-3-(4-methylpiperazin-1-yl)carbonyl-4-(naphthalen-1-yl)-1H-pyrrole] was run?
**A.** < 0.01 µM

**Q.** What about the IC50 (Ras farnesyl transferase [2]) of the same compound?
**A.** < 0.03 µM

**Q.** What about the IC50 (Ras farnesyl transferase [3]) of the same compound?
**A.** < 0.01 µM

**Q.** And the IC50 (Ras farnesyl transferase [4])?
**A.** > 10 µM
